melting point | SMILES
216 to 218 °C | CS(=O)(=O)c1ccc(-n2nc(C(F)(F)F)cc2-c2nc3ccc(F)cc3o2)cc1
63 to 66 °C | O=C1C=CC(O)(c2nc3ccccc3s2)C=C1
95 to 96 °C | CCCN(CCC)C(=O)COc1nc(-c2ccc(F)cc2)nc2c1CCCC2
102 to 104 °C | CC(=O)Nc1nc(CCc2ccc(N)cc2)cs1
196 °C | O=C(O)C(c1ccc(Cl)cc1)c1ccc(-n2ncc(=O)[nH]c2=O)cc1Cl (centres undefined)
114 to 115 °C | CCc1cccc2c(C(C)=CC(=O)O)cc(OC)c(O)c12
144 to 145 °C | OCCC1(CCO)c2ccccc2Oc2ccccc21
96 to 99 °C | CCCCCCCCOC(=O)Nc1c2c(nc3ccccc13)CCCC2
131 to 134 °C | CCOC(=O)c1csc(-c2ncccc2O)n1
82 to 83 °C | CC(C)COC1C=CC(=O)N1S(=O)(=O)c1ccccc1 (centres undefined)
140 to 141 °C | CCOC(=O)C1=C(c2cccc(Cl)c2Cl)N(C(=O)OCC)C(=O)NC1C (centres undefined)
166 to 168 °C | CCN1CCCC1CNC(=O)c1c(O)ccc(Br)c1O (centres undefined)
64 to 65 °C | C#Cc1cc2ccccc2[nH]1
76 to 78 °C | Cc1cccc(OCC(=O)N[C@@H](Cc2ccccc2)C(=O)CSCc2ccco2)c1
195 to 197 °C | c1coc(-c2n[nH]c3c2Cc2ccccc2-3)c1
102 °C | CN(C)c1ccc(NC(=O)N(C)c2cccc(-c3ccc(CC4SC(=O)NC4=O)cc3)c2)cc1 (centres undefined)
116 °C | CCOC(=O)C(C)Sc1ccc(-c2nc(=O)c3ccccc3s2)cn1 (centres undefined)
74 °C | Nc1ccc2oc(CCC(F)(F)F)cc2c1
209 to 210 °C | CCc1c(C(=O)c2cc(C)cc(C)c2)n(CC2CC=CC2)c(=O)[nH]c1=O
196 to 198 °C | Nc1ccc(-n2cnnc2)cc1C(F)(F)F

melting point | SMILES
105 to 106 °C | COC(=O)[C@H]1Cc2cc(SC)ccc2C(=O)[C@H](C)S1 (relative stereo)
131 to 132 °C | Cc1cc2c(c3ccc(=O)[nH]c13)OC(CNC(=O)[C@@H]1CCCN1C(=O)OCc1ccccc1)C2 (some centres undefined)
131 to 133 °C | CN(Cc1ccc2[nH]cc(CCN3C(=O)c4ccccc4C3=O)c2c1)S(=O)(=O)C(F)(F)F
168 to 170 °C | C[C@]12CCC(=O)N[C@@H]1CCc1cc(Sc3cnc4ccccc4c3)ccc12
325 °C | CCn1cc(C(=O)O)c(=O)c2cc(Cl)c(N3CCCC3)cc21
208 °C | CNc1c2c(nc3ccc([N+](=O)[O-])cc13)CCCC2=O
152 to 154 °C | COc1cccc(OC)c1C=CC(=O)C=Cc1c(OC)cccc1OC
194 °C | N#Cc1nc2cc(O)ccc2s1
61 to 62 °C | O=[N+]([O-])c1cc(CO)ccc1Br
178 to 180 °C | Cc1ccc(-c2ccc(C(=O)Nc3ccc4cc(CN5CCCC5)cnc4c3C)cn2)cc1
225 to 226 °C | N#Cc1ccc(S(=O)(=O)c2ccc(O)cn2)cc1
58 °C | CC(=O)COc1ccc(C2CCCCC2)cc1
190 °C | COC(=O)c1cc(NS(C)(=O)=O)c2cc(Cc3ccc(F)cc3)cnc2c1O
122 to 123 °C | Cc1nc(N2CCN(CCC3CC3)C2=O)sc1C(=O)NCc1ccc(F)cc1
262 to 265 °C | CC1(C)C(=O)Oc2ccc3cc(C(=O)O)c(Cn4cncn4)cc3c21
127 to 131 °C | CCNC(=O)N1C2=NC(C)(C)N(C)C(=O)N2c2ccccc21
112 to 113 °C | Cc1cccc(COc2cccc(O)c2)c1C(=O)O
140 to 145 °C | CN1C(=O)CC[C@]2(C)c3ccc(Sc4nc5c(F)cccc5s4)cc3CC[C@@H]12
144 to 145 °C | Cc1ccc2[nH]c(=O)oc2c1
161 to 162 °C | CC(=O)OC1(C)C=CC2=NC(c3cc(C)c(O)c(C)c3)=CC2=C1 (centres undefined)

melting point | SMILES
68 to 70 °C | Nc1ccc(OC(F)F)cc1[N+](=O)[O-]
105 to 106 °C | CC(C(=O)O)c1ccc(Oc2ccc(F)cc2F)cc1 (centres undefined)
105 to 106 °C | COc1ccc(CCNC(=O)C(F)(F)F)cc1C=O
205 to 207 °C | NC(=O)c1c(N)sc(-c2ccc(F)cc2)c1-c1ccccc1
104 to 106 °C | Cc1ccc(-n2c3ccccc3c3ccccc32)cc1
212 to 214 °C | CCCc1nn(C)c2c(=O)[nH]c(-c3cc([N+](=O)[O-])cnc3OC3CCC3)nc12
88 to 90 °C | O=C(Nc1cccc(Br)c1)Oc1ccccc1
192 to 194 °C | O=c1c2cc(O)ccc2oc2cccc(NCCN3CCCC3)c12
69 to 71 °C | COc1ccc(OCCO)cc1
277 to 279 °C | Cc1c(O)c(=O)[nH]c2cc(Cl)ccc2c1=O
276 °C | O=C(O)c1cc2sc3sccc3c2s1
165 to 167 °C | CCn1ccc(Nc2cc(Br)cn(C)c2=O)n1
158 to 160 °C | COCCOCC(=O)Nc1ccnn1-c1c(Cl)cc(C(F)(F)F)cc1Cl
178 to 181 °C | CCCc1c(OCCCCCc2c(Cl)ccc(O)c2O)ccc(C(=O)O)c1O
200 to 203 °C | CCC(C#N)=C1CCN(c2ccc(N3C[C@H](CNC(=O)CBr)OC3=O)cc2F)CC1
230 to 232 °C | CCc1cc(C(=O)c2ccccc2Cl)c(-n2c(CNC(=O)c3cc4ccccc4[nH]3)nnc2-c2ccccc2)s1
246 to 248 °C | Cc1cccc(C)c1NC(=O)c1ccc(C(N)=O)cc1
143 to 144 °C | COC(=O)c1[nH]c2c(C)ccc(C)c2c1C(=O)OC
104 to 106 °C | O=c1oc(-c2cccc(OCCc3ccccc3)c2)cc(O)c1SCCc1ccccc1

Continued, compound first:

SMILES | melting point
CC(C)(O)CCn1c2ccccc2c2cc(NC(=O)c3ccccc3C(F)(F)F)ccc21 | 188 to 189 °C
O=C(CCCN1CCN(c2ccc(CO)c(Cl)c2)CC1)c1ccc(Cl)cc1 | 137 to 139 °C
O=C(NCCCCn1ccnc1)c1ccco1 | 88 to 90 °C
O=C(NCCN(C1CC1)S(=O)(=O)c1ccccc1[N+](=O)[O-])N1CCN2C(=O)OC(c3cccc(F)c3)(c3cccc(F)c3)C2C1 (centres undefined) | 203 °C
O=C(O)COc1ccc2cc(-c3cnc(-c4cn(Cc5ccccc5)c5ccccc45)o3)ccc2c1 | 238 to 242 °C
CCOC(=O)C1CCCN(C(=O)C2CCC(Nc3nccc(-n4ccc5c(OCCCS(C)(=O)=O)cccc54)n3)CC2)C1 (centres undefined) | 175 to 177 °C
O=C(Nc1ccc2[nH]nc(C#Cc3ccccc3)c2c1)N[C@@H](c1ccc(Cl)c(Cl)c1)[C@@H]1CCCCN1 | 160 °C
O=S1CCC(c2ccccc2)(c2ccccc2)CC1 | 122 °C
COc1ccc(C(=O)Nc2ccccc2)cc1NC(=S)Nc1c(F)c(F)cc(F)c1F | 170 to 174 °C
COc1ccc(-c2c(Cl)c(CN3C(=O)CCC3=O)nc3sc4c(F)c(O)ccc4c23)cc1 | 294 to 295 °C
CCC(CC)c1ccc(Cl)c2nc(Nc3c(C)cc(Cl)cc3OC)n(CC(=O)OC(C)C)c12 | 205 to 207 °C
CCC(C(C)=CC(CNC(=O)c1nc[nH]c1C)=NO)[N+](=O)[O-] (centres undefined) | 133 to 136 °C
N#CC(=NOS(=O)(=O)c1ccc(C(=O)Cl)cc1)c1ccccc1 | 193 to 195 °C
Nc1ncnc2c1c(-c1cc(O)cc(F)c1)nn2Cc1oc2cccc(F)c2c(=O)c1-c1cccc(F)c1 | 136 to 138 °C
CC(=O)C=Cc1c(Cl)nc(C)c2c1CCCC2 | 90 °C
COC(=O)c1ccc(C(=O)NS(=O)(=O)c2ccc(C(=O)NCCCc3ccccc3)cc2)cn1 | 240 to 242 °C
O=C(O)C(O)C(Sc1ccc(O)cc1)c1ccccc1CCCCCCCCc1ccccc1 (centres undefined) | 155 to 157 °C
CC(=O)Nc1cc2c(cc1C#N)C(Nc1ccc(C(=O)OC(C)(C)C)c(F)c1)CC2 (centres undefined) | 172 to 173 °C
C#CC1(O)CCC2(C)C(CCC3C2CCC2(C)C(C(=O)CO)CCC32)C1 (centres undefined) | 156 to 157 °C
N#CC1CCN(c2ccc3c(NC(=O)CC4CCCCC4)c(Cl)ccc3n2)CC1 | 235 to 237 °C

SMILES | melting point
CN1CC(CCCO)CC2(OCCO)c3cccc4[nH]cc(c34)CC12 (centres undefined) | 212 to 215 °C
Cc1cc(-n2ccnc2)c2cccc(OCc3c(Cl)ccc(-n4cccc4CNC(=O)C=Cc4ccc(C(=O)O)cc4)c3Cl)c2n1 | 166 to 170 °C
COc1cc(N)c(Cl)cc1C(=O)NCC12CCCN(CCC1)C2 | 202 to 203 °C
ICCCC1(c2ccccc2)OCCO1 | 71 to 73 °C
CC(C)(C)NC(=O)c1nn(-c2ccc(F)cc2F)c2c1C1CC3CC(C1)CC2C3 | 188 to 190 °C
Cc1nc(-c2ccc(C#N)cc2)sc1C(=O)N(CCO)[C@H](C)[C@](O)(Cn1cncn1)c1ccc(F)cc1F | 113 to 119 °C
CNC(=O)NCCN1CCC(=C2c3sccc3CCn3ccnc32)CC1 | 159 °C
COC(=O)C1(NC(=O)Cc2cc(-c3ccc(Cl)cc3)ccc2Cl)CCC(F)(F)CC1 | 146 to 147 °C
O=C(Nc1nc2ccc(OCc3c(Cl)cccc3Cl)cc2s1)C1CC1 | 178 °C
Cc1cc(-c2cc(C(F)(F)F)nc(-c3cccc(-c4cccc(S(N)(=O)=O)c4)c3)n2)ccc1C(F)(F)F | 205 °C
COP(=O)(Nc1ccc(N)cc1)OC | 125 °C
CCCN(CCC)Cc1cnc(-c2ncn3c2CN(C)C(=O)c2c-3ccc(F)c2Cl)o1 | 110 to 112 °C
CN(C)C(=O)COc1ccc2c(c1)C[C@@H](NC[C@@H](O)c1ccc(OCc3ccccc3)cc1)CC2 | 103 to 106 °C
CCc1nnc(N2N=C(c3ccc([N+](=O)[O-])cc3)c3cc4c(cc3C[C@H]2C)OCO4)s1 | 105 °C
C=Cc1cc(O)cc2nc(-c3ccc(OP(=O)(OCC)OCC)c(F)c3)oc12 | 134 to 136 °C
O=C(NCc1ccc([N+](=O)[O-])cn1)C(c1ccccc1)c1ccccc1 | 160 to 164 °C
CN1CCN(C(=O)[C@H](CC(N)=O)Nc2ccc(OCc3ccccc3)cc2OCc2ccccc2)CC1 | 83 to 85 °C
CC(COc1ccc(O)c(C(N)=O)c1)N(Cc1ccccc1)CC(O)COc1ccc(OCc2ccccc2)cc1 (centres undefined) | 149 to 160 °C
CCN(CC)C(=O)Cc1cc(C(C)(C)C)c(O)c(C(C)(C)C)c1 | 111 to 113 °C
C#Cc1cccc(Nc2ncnc3cnc(NCc4ccc(OC)cc4)cc23)c1 | 200 to 203 °C
